According to ChEMBL document CHEMBL5729152, “Lysyl oxidase-like 2 inhibitors and uses thereof” (2022):
pIC50: −log10 of the molar value.

Target: T1, Lysyl oxidase homolog 2 (Homo sapiens, UniProt Q9Y4K0)
T1 sequence (Q9Y4K0 whole entry): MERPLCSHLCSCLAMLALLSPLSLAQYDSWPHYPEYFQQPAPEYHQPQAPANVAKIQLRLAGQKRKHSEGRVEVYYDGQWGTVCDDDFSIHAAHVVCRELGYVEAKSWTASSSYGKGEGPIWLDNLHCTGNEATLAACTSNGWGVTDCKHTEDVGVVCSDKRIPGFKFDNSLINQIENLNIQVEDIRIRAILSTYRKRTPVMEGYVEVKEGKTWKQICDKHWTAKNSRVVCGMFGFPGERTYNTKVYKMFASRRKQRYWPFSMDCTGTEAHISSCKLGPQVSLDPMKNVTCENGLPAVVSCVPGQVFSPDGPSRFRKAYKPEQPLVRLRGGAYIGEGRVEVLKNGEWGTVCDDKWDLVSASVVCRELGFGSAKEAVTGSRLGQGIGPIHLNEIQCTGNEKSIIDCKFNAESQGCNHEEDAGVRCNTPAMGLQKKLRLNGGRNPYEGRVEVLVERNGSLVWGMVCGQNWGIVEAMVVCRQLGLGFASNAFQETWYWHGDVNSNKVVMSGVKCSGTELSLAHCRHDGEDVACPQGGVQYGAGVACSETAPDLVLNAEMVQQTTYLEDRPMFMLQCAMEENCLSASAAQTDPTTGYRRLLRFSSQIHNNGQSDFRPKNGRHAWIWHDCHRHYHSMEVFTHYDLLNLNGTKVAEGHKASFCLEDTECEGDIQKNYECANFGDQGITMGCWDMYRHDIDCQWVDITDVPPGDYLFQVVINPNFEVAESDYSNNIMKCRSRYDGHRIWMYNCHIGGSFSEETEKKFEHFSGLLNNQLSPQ
Test: Human LOXL2 Amine Oxidase Activity Assay: LOXL2 amine oxidase activity is evaluated by measuring Amplex Red fluorescence using 10-20× concentrated conditioned media from CHO cells stably expressing human LOXL2. To assay for amine oxidase activity, 10 μL of the concentrated conditioned media is incubated with 2 μL of test compound in DMSO and 73 μL Assay Buffer (50 mM Borate Buffer, pH8) for 2 h at 37° C. After the 2 h incubation, 5 μl of 10 mM 1,5-Diaminopentane (DAP) diluted in Assay Buffer and 10 μl of Amplex Red Mix (8.5 μl Assay Buffer+0.5 μl of 10 mM Amplex Red+1 μl of 500 U/ml Horseradish Peroxidase) are added and the plate mixed and immediately placed on the FlexStaion for fluorescence measurements. Fluorescence is read in kinetic mode every 2 min for 1 hour at excitation=544 and emission=590. The amine oxidase activity is calculated from the slope of the linear portion of the curve

**Q.** `CCN1CCN(Cc2ccc(CNC(=O)c3cccc(Oc4cc(CN)ccn4)c3)cc2)CC1` was tested. Which pIC50 did it give?
**A.** > 6.52

**Q.** How did the pIC50 turn out when `NCc1ccnc(C(=O)NCc2ccccc2)c1` was run?
**A.** > 6.52
